According to patent publication US20180318275A1, “COMBINATION THERAPY USING PI3K INHIBITOR AND MDM2 INHIBITOR” (Novartis AG, priority 2015, published 2018):

Test system: 5 TP53 wild type colorectal cancer cell lines
Experiment: Cell proliferation over the cell line panel, Example 2
Type: cell-based
Conditions: Example 2, panel of 5 lines, 13 nM-10 μM
Method: To test the effect of the combination of COMPOUND A and COMPOUND B on cell proliferation cells were plated in black 384-well microplates with clear bottom (Matrix/Thermo Scientific, Catalog number 4332) in 50 μL media per well at cell densities between 500 and 1250 cells/well (Table 1) and allowed to incubate at 37 degrees, 5% CO2 for 24 h. After 24 h one 384-well plate per cell line was prepared for cell counting by microscopy (see below) without receiving treatment (=‘baseline’). The other cell plates were treated by transferring 25 nL of the 2000× compound from drug master plates using an ATS acoustic liquid dispenser (ECD Biosystems) and resulting in a final 1× concentration. COMPOUND A was used over a final concentration range of 13 nM-10 μM, and COMPOUND B was used over a final concentration range of 13 nM-10 μM (7 1:3 dilution steps). […] Caspase 3/7 induction was measured as a proxy for apoptosis induced by the treatments. Cells were treated for 72 h to 96 h depending on their doubling time (Table 1), and Caspase 3/7 activation was measured every 24 h by microscopy using an InCell Analyzer 2000 (GE Healthcare) equipped with a 4× objective and FITC excitation/emission filters. […] All cells per well/treatment were captured in a single image by fluorescence microscopy using an InCell Analyzer 2000 (GE Healthcare) equipped with a 4× objective and DAPI excitation/emission filters. […]

Row | Structure (SMILES) | Single agent growth inhibition, in words
1 | Cc1nc(NC(=O)N2CCC[C@H]2C(N)=O)sc1-c1ccnc(C(C)(C)C(F)(F)F)c1 [COMPOUND A, (S)-Pyrrolidine-1,2-dicarboxylic acid 2-amide 1-({4-methyl-5-[2-(2,2,2-trifluoro-1,1-dimethyl-ethyl)-pyridin-4-yl]-thiazol-2-yl}-amide)] | inhibited the growth of 2 of the cell lines with micromolar IC50 values, and was active only at the highest dose (10 μM) in the 3 other lines
2 | COc1cc2c(cc1OC(C)C)[C@H](c1ccc(Cl)cc1)N(c1ccc(N(C)C[C@H]3CC[C@H](N4CCN(C)C(=O)C4)CC3)cc1)C(=O)C2 [COMPOUND B, (S)-1-(4-Chloro-phenyl)-7-isopropoxy-6-methoxy-2-(4-{methyl-[4-(4-methyl-3-oxo-piperazin-1-yl)-trans-cyclohexylmethyl]-amino}-phenyl)-1,4-dihydro-2H-isoquinolin-3-one] | inhibited the growth of cell lines with sub-micromolar to micromolar IC50 values
